Consider 1 molecule from ChEMBL document CHEMBL5338713, “Discovery of pomalidomide-based PROTACs for selective degradation of histone deacetylase 8” (Eur J Med Chem, 2022).

Calls of active or inactive are those of the source. No cut-off for these calls is given here.

Common to all, as to type: cell-based
For assay [1], the target named is T1, Histone deacetylase 8 (Homo sapiens) (UniProt Q9BY41).
T1 sequence (whole entry): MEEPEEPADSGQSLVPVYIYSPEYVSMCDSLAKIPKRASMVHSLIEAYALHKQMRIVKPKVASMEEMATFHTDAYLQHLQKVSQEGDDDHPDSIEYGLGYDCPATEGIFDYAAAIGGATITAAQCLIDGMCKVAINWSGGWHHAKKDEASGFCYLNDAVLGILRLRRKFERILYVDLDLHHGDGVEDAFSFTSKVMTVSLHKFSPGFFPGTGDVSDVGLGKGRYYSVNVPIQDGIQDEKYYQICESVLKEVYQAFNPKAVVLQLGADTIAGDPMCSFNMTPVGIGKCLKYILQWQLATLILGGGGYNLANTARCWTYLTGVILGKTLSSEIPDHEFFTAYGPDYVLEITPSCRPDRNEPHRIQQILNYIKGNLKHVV
Description: Induction of HDAC8 degradation in human HCT-116 cells assessed as hook effect measured at > 40 uM for 10 hrs by Western blot analysis.

Assay [2] has as its target T2, Protein deacetylase HDAC6 (Homo sapiens, UniProt Q9UBN7).
T2 sequence (Q9UBN7 whole entry): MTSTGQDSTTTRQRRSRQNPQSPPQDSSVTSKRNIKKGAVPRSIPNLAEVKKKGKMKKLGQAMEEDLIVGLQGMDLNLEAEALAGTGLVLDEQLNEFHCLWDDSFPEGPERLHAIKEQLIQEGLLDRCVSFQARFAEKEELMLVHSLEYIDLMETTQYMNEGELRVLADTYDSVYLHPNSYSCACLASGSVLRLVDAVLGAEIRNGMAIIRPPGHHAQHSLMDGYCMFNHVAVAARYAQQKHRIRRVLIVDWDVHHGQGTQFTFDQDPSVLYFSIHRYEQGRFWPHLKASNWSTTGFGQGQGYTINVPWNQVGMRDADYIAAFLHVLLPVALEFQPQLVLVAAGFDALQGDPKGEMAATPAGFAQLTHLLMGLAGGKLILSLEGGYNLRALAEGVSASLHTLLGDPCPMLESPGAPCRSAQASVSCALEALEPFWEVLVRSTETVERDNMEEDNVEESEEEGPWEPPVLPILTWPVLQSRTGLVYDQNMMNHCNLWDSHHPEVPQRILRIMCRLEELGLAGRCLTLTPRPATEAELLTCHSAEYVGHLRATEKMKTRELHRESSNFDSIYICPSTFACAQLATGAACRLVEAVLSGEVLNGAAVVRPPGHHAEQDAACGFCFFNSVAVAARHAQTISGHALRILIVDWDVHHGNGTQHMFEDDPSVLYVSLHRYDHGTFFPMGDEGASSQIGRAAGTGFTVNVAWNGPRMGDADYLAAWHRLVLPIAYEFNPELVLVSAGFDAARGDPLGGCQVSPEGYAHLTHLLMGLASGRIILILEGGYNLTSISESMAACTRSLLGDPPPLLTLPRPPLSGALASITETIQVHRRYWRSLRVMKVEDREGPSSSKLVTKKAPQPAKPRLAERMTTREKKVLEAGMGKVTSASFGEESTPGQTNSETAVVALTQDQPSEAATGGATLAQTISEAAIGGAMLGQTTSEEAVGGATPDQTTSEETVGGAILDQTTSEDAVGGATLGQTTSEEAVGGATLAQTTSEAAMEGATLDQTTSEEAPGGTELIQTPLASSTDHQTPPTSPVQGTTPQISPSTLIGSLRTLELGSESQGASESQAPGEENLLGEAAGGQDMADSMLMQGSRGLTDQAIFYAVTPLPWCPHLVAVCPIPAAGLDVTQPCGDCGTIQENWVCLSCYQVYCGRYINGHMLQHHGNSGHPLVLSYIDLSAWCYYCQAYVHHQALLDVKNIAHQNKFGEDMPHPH
Description: Induction of HDAC6 degradation in human HCT-116 cells measured after 10 hrs by Western blot analysis. Background: Immunoblotting shows a protein as a band on a membrane.

Assay [3] concerns the target T3, Protein deacetylase HDAC6 (Homo sapiens) (UniProt Q9UBN7).
T3 sequence (whole entry): T2 sequence (Q9UBN7 whole entry)
Description: Induction of HDAC6 degradation in human HCT-116 cells assessed as increase in alpha-tubulin acetylation level measured after 10 hrs by Western blot analysis. The following applies: dose 0.1-160 µM.

In assay [4] the target is T1, Histone deacetylase 8 (Homo sapiens). Description: Induction of HDAC8 degradation in human HCT-116 cells assessed as maximum degradation at 0.1 to 160 uM measured after 10 hrs by Western blot analysis relative to control. The following applies: dose 0.1-160 µM.
The target is the same in assay [5]. Description: Induction of HDAC8 degradation in human HCT-116 cells assessed as maximum degradation at 5 uM measured at 10 hrs by Western blot analysis.
Assay [6] has as its target T4, Protein cereblon/Histone deacetylase 8 (Homo sapiens) (UniProt Q9BY41+Q96SW2). Description: PROTAC activity at HDAC8/CRBN in human HCT-116 cells assessed as degradation of HDAC8 at 5 uM measured after 10 hrs in presence of E3 ligase inhibitor by Western blot analysis.
The target in assay [7] is T1, Histone deacetylase 8 (Homo sapiens). Description: Induction of HDAC8 degradation in human HCT-116 cells at 5 uM measured at 24 hrs by Western blot analysis.
Assay [8] has as its target T4, Protein cereblon/Histone deacetylase 8 (Homo sapiens). Description: PROTAC activity at HDAC8/CRBN in human HCT-116 cells assessed as degradation of HDAC8 at 5 uM measured after 10 hrs in presence of pomalidomide by Western blot analysis.
Assay [9] shares this target. Description: PROTAC activity at HDAC8/CRBN in human HCT-116 cells assessed as degradation of HDAC8 at 5 uM measured after 10 hrs in presence of MG132 by Western blot analysis.
For assay [10], the target named is Histone deacetylase 1 (Homo sapiens) (UniProt Q13547). Description: Induction of HDAC1 degradation in human HCT-116 cells at 0.1 to 160 uM measured after 10 hrs by Western blot analysis. Conditions: dose 0.1-160 µM.
Histone deacetylase 1 (Homo sapiens), sequence (Q13547 whole entry): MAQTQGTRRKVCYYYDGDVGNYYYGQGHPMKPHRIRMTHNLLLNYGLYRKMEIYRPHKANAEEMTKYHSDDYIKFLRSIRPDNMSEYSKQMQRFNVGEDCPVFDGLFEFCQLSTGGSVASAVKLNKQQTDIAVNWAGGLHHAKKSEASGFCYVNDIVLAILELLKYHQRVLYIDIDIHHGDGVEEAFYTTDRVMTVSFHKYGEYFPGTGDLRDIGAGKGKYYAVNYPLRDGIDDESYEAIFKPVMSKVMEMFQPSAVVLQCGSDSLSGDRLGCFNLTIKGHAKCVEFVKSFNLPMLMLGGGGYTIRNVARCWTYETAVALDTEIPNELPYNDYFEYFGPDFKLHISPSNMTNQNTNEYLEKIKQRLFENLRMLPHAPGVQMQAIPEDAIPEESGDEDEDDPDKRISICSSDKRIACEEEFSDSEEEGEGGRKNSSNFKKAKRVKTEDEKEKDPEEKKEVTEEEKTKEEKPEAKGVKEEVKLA
The target in assay [11] is T1, Histone deacetylase 8 (Homo sapiens). Description: Induction of HDAC8 degradation in human HCT-116 cells at 5 uM by Western blot analysis relative to control.
Assay [12] addresses T4, Protein cereblon/Histone deacetylase 8 (Homo sapiens). Description: PROTAC activity at HDAC8/CRBN in human HCT-116 cells assessed as degradation of HDAC8 at 5 uM measured after 10 hrs in presence of bafilomycin Al by Western blot analysis.
Assay [13] deals with Histone deacetylase 3 (Homo sapiens) (UniProt O15379). Description: Induction of HDAC3 degradation in human HCT-116 cells at 0.1 to 160 uM measured after 10 hrs by Western blot analysis. The following applies: dose 0.1-160 µM.
Histone deacetylase 3 (Homo sapiens), sequence (O15379 whole entry): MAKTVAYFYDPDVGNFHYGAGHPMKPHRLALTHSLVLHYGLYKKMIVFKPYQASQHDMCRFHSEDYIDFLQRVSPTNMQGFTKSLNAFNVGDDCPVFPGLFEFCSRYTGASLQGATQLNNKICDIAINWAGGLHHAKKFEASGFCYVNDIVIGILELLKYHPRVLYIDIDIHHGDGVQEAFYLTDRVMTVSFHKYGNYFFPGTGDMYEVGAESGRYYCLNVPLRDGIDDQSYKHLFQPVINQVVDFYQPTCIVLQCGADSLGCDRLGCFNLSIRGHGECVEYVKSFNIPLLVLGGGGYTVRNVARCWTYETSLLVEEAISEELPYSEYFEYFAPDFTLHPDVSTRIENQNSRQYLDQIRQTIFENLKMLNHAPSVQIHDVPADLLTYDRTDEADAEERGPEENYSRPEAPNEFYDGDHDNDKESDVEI
Assay [14] has as its target T4, Protein cereblon/Histone deacetylase 8 (Homo sapiens). Description: PROTAC activity at HDAC8/CRBN in human HCT-116 cells assessed as degradation of HDAC8 at 5 uM measured after 10 hrs in presence of BRD73954 by Western blot analysis.
The target in assay [15] is T1, Histone deacetylase 8 (Homo sapiens). Description: Induction of HDAC8 degradation in human HCT-116 cells assessed as increase in SMC3 acetylation level measured after 10 hrs by Western blot analysis. The following applies: dose 0.1-160 µM.
For assay [16] the target is unchanged. Description: Induction of HDAC8 degradation in human HCT-116 cells at 5 uM measured at 2 hrs by Western blot analysis.

T4 sequence (Q96SW2 whole entry, looked up, one chain of several): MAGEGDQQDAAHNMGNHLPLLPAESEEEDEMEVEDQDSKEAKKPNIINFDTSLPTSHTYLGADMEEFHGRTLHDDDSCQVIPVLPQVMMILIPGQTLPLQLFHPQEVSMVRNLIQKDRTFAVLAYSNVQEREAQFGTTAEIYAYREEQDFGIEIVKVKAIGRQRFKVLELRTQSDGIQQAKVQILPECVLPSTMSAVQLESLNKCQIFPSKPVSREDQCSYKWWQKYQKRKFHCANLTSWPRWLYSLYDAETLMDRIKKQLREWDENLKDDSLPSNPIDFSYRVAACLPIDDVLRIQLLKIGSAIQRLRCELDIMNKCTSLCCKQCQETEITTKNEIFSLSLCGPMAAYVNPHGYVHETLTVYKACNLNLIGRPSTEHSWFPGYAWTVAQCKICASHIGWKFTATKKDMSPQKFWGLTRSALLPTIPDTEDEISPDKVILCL

Turning to `O=C(CCCCOc1ccc(CCNC(=O)c2cccc(C(=O)NO)c2)cc1)NCCCCCCNc1cccc2c1C(=O)N(C1CCC(=O)NC1=O)C2=O` (stereo unspecified), the outcome in assay [1], in [5], in assay [7], in [12] and in assay [16] was Active. This molecule also registered a half-maximal degradation concentration (DC50) in [2] of 4.95 µM. The Activity result in assay [3] is “Dose-Dependent Effect”; in [11], 85%; in [15] it was “Dose-Dependent Effect”. Also, in assay [4], the Emax turned out to be 93%. Also, the outcome in assay [6], in [8], in assay [9], in [10], in assay [13] and in assay [14] was inactive.

In general, DC50 refers to the concentration giving 50% degradation. A low value points to a more potent degrader. What is called Emax is the maximal effect, on the per cent scale that the assay sets.
